Data published in patent publication US5204361A, “Method for treating laminitis in equine livestock” (priority 1988, dated 1993).

Tests used:
[1] = tested on: horses given controlled doses of ground wheat; experiment: Experiment 3: in vivo action of virginiamycin in horses dosed with ground wheat; design: species or system horse
Method: These animals were pre-dosed with virginiamycin by feeding 2 kg of a mixture containing: chaff 1225 g, sugar 225 g, water 450 g and `Stafac 20` 100 g. This provided approximately 2 g virginiamycin/d. The sugar was first dissolved in water before adding the `Stafac 20` and mixing it into a uniform suspension. This mixture was then added to the chaff and mixed for 20 minutes. When this feed was not eaten on the second day on which it was offered the animals were dosed with 125 g `Stafac 20`/head (2.5 g virginiamycin/head), via a stomach tube. On the third day of the experiment the animals were given a dose of ground wheat. This provided approximately 6 mg virginiamycin/kg liveweight. The wheat was mixed in a slurry with water and given in two equal amounts with an interval of about 2 hours between doses. The animals were examined and sampled at 8 hour intervals over a period of 48 hours as described for Experiment 1 above. Times were taken from the first dose of wheat.
Eight horses were used for this experiment. Four animals received virginiamycin and 4 animals received the same treatment but without virginiamycin. The animals which received virginiamycin were pre-dosed for two days prior to administration of the wheat slurry by feeding 640 g of a mixture containing lucerne chaff 495 g, sugar 16.5 g, cornflour 8.3 g, water 115 g, `Stafac 500` 4.95 g. This provided approximately 2.48 g virginiamycin/d. This was prepared in the following way. An evenly mixed slurry of the sugar, cornflour, water and `Stafac 500` was prepared and this was added to the lucerne chaff before mixing thoroughly in a cement mixer. The control animals received 640 g of lucerne chaff without any additive. The doses of wheat administered on the third day provided 12 grams of ground wheat/kg liveweight. Again this was given in two equal amounts with an interval between doses. The wheat given to the horses on the virginiamycin treatment contained `Stafac 20` (20/kg wheat). This provided approximately 4.8 mg virginiamycin/kg liveweight. The animals were examined and sampled at 8 hour intervals over a period of 48 hours as described above for Experiment 1.

[2] = tested on: caecal and large colon digesta of horses; experiment: Experiment 2 Part 4: fresh digesta of horses fed pelleted diet with virginiamycin; assay type: in vivo, horse; details: for pH, fresh digesta / L-lactate, fresh digesta / Total VFA, fresh digesta / % Acetate, fresh digesta / % Butyrate, fresh digesta / % Iso-valerate, fresh digesta / % Propionate, fresh digesta / % Valerate, fresh digesta: n = 5, mean; for % Acetate, fresh digesta / % Butyrate, fresh digesta / % Iso-valerate, fresh digesta / % Propionate, fresh digesta / % Valerate, fresh digesta: molar percentage, feed with virginiamycin
Method: A total of ten horses were used for this experiment. Five horses were offered 5 kg of a pelleted mixture (ground wheat 92.5%, ground lucerne chaff 5% and `Stafac 20` 2.5% to supply approximately 2.5 g virginiamycin. A further 5 horses were offered the same feed but without virginiamycin. Samples of caecal and large colon digesta were taken for analysis of pH, VFA, virginiamycin and L-lactate. Samples were also prepared as described above with buffer solution and incubated (1 flask/sample) with cornstarch (15 mg/ml diluted digesta). Following 20 hours incubation samples were taken for analysis of L-lactate and pH.

[3] = tested on: caecal and large colon contents; experiment: Experiment 2 Part 3: in vitro screening at 2 ug/ml in digesta of four horses; assay type: cell-based, horse; details: for pH / L-lactate: 2 ug antibiotic/ml, 15 mg cornstarch/ml, 20 hour incubation
Method: Digesta was taken from the caecum and large colon from recently slaughtered animals and was filtered through nylon gauze (approximately 60 micron apertures). The fluid was diluted 1:1 with a buffer solution described by Bales et al. (1976) and incubated with wheat "corn starch" (with or without antibiotics) at 37° for 16 to 20 hours. Aliquots of digesta diluted with buffer (50 ml) were added to 100 ml conical flasks. The flasks were flushed with carbon dioxide before being sealed with a tightly fitting rubber cap. A 21 gauge needle was inserted through the rubber seal in order to allow gas to escape during the fermentation. On removal from the incubator sub-samples were immediately taken to measure L-lactic acid concentration and pH. For each treatment or level of antibiotic three replicate incubation flasks were used.
All four of the antibiotics, listed above, were incubated as previously described to provide 2 ug antibiotic and 15 mg cornstarch per ml incubation mixture. There was one flask per test and each antibiotic was incubated in digesta from both the caecum and the large colon taken from each of 4 animals. Samples of incubation fluid were taken following a 20 hour incubation and were analysed for L-lactate and pH.

[4] = tested on: caecal/large colon digesta; experiment: Experiment 2 Part 6: therapeutic use, virginiamycin added after the start of fermentation; assay type: cell-based, horse; details: virginiamycin 10 ug/ml added at 4, 8 or 12 h; total 24 h; FIG. 6
Method: An in vitro experiment was conducted to determine whether by adding the virginiamycin after the start of fermentation of caecal digesta and glucose subsequent lactic acid production could still be prevented.
Samples of caecal/large colon digesta were prepared as described above (Part 5) but with the following treatments (3 replicates/treatment):
(a) Control--incubated for 24 h;
(b) Sampled after 4 h and virginiamycin added before incubating for a total of 24 h;
(c) As for (b) but with sampling etc at 8 h; and
(d) As for (b) but sampling etc after 12 h. Virginiamycin was added to provide 10 ug/ml.

[5] = tested on: caecal/large colon digesta; experiment: Experiment 2 Part 5: efficacy of tylosin relative to virginiamycin, digesta incubated with glucose; assay type: cell-based, horse; details: digesta incubated with glucose, 37°, 20 hours, mean
Method: An in vitro fermentation experiment was conducted to determine the efficacy of tylosin relative to virginiamycin. Samples of strained caecal and large colon digesta (16 ml) were incubated with glucose solution (60 ug/ml) (4 ml) and varying concentrations of either tylosin or virginiamycin representing […], 2.0, 4.0 ug of tylosin or virginiamycin per ml. The 25 ml containers were incubated at 37° for 20 hours. There were three replicates per treatment.

[6] = Caecum, feed with virginiamycin approx 14 hours before slaughter
[7] = Colon, feed with virginiamycin approx 14 hours before slaughter

Substance: virginiamycin
- signs of lameness ([1]; 5 animals dosed with virginiamycin, ground wheat, 48 hours, 3 of 4 controls Obel grade 2): none showed any signs of lameness
- faecal pH ([1]; 48 hours after wheat slurry, FIG. 4(b)): no significant change
- death after wheat slurry with virginiamycin ([1]; Part 1, 2 horses, approx 6 mg virginiamycin/kg liveweight, build up of gas in the caecum): one died after 16 hours
- parameters associated with acidosis (blood bicarbonate and pH, and faecal pH) ([1]; after wheat slurry): within normal limits
- blood L-lactate versus control ([1]; at 8 and 16 hours after wheat, FIG. 3): significantly higher
- blood D-lactate ([1]; at 16 hours after wheat, FIG. 3): only a minor increase
- blood L-lactate versus control ([1]; by 40 hours after wheat, FIG. 3): higher (p<0.05) in the control animals
- blood D-lactate level ([1]; in vivo): maintained blood D-lactate at a low level
- development of laminitis following excessive carbohydrate intake ([1]; in vivo): protected horses against the development of laminitis
- gas produced during the initial rapid fermentation of the carbohydrate ([1]; in vivo): more gas was produced
- heart rate versus control horses ([1]; in vivo): higher than that of the control horses
- ill effects of the dose, second animal ([1]; in vivo): no ill effects
- reduction in lameness versus control ([1]; virginiamycin prior to and in conjunction with the wheat slurry): significant (p<0.05) reduction
- pH, fresh digesta ([2]; Caecum, feed with approx 2.5 g virginiamycin approx 14 hours before slaughter): 6.2
- L-lactate, fresh digesta [2, 6]: 10.3 mmol/L
- Total VFA, fresh digesta [2, 6]: 76.1 mmol/L
- % Acetate, fresh digesta ([2]; Caecum): 50.3%
- % Butyrate, fresh digesta ([2]; Caecum): 3.2%
- % Iso-valerate, fresh digesta ([2]; Caecum): 0.0%
- % Propionate, fresh digesta ([2]; Caecum): 46.5%
- % Valerate, fresh digesta ([2]; Caecum): 0.5%
- L-lactate, fresh digesta [2, 7]: 10.2 mmol/L
- Total VFA, fresh digesta [2, 7]: 118.7 mmol/L
- pH, fresh digesta [2, 7]: 6.0
- % Acetate, fresh digesta ([2]; Colon): 52.1%
- % Butyrate, fresh digesta ([2]; Colon): 3.6%
- % Iso-valerate, fresh digesta ([2]; Colon): 1.5%
- % Propionate, fresh digesta ([2]; Colon): 44.3%
- % Valerate, fresh digesta ([2]; Colon): 0.2%
- molar percentage of propionate versus control animals ([2]; fresh digesta): more than twice
- molar percentages of acetate, butyrate, isovalerate and valerate versus control animals ([2]; fresh digesta): reduced
- pH of the digesta in the caecum or large colon versus control animals ([2]; fresh digesta): no significant effect
- total concentration of VFA versus control animals ([2]; fresh digesta, p<0.001): lower total concentration of VFA
- concentration of L-lactate in the caecal and large colon digesta versus control animals ([2]; fresh digesta, p<0.05): higher
- pH ([3]; Horse 1): 5.40
- L-lactate ([3]; Horse 1, mean of caecum and large colon): 0.3 mmol/L
- pH ([3]; Horse 2): 4.94
- L-lactate ([3]; Horse 2, mean of caecum and large colon): 34.1 mmol/L
- pH ([3]; Horse 3): 5.17
- L-lactate ([3]; Horse 3, mean of caecum and large colon): 7.6 mmol/L
- pH ([3]; Horse 4): 5.27
- L-lactate ([3]; Horse 4, mean of caecum and large colon): 12.3 mmol/L
- L-lactate ([3]; Mean of 4 horses): 13.6 mmol/L
- pH ([3]; Mean of 4 horses): 5.19
- pH of the incubation fluid relative to unmedicated control ([3]; all horses, 2 ug/ml, p,0.01): significant increase
- L-lactate concentration relative to unmedicated control ([3]; all horses, 2 ug/ml, p<0.001): significant reduction
- time after the start of glucose fermentation at which addition of virginiamycin still prevents the build up of lactic acid [4]: up to 8 h
- L-lactate ([5]; antibiotic 0.50 μg/ml): 25 mmol/L
- L-lactate ([5]; antibiotic 2.00 μg/ml): 11.0 mmol/L
- L-lactate ([5]; antibiotic 4.00 μg/ml): 7.7 mmol/L
